Data: paper PMC10893082, “Development and Optimization of Andrographis paniculata Extract-Loaded Self-Microemulsifying Drug Delivery System Using Experimental Design Model” (Pharmaceutics, 2024)
In brackets after ≈: the same amount, converted by molar mass.

How the values were obtained:
[1] = test system: SARS-CoV-2; design: method as in ref 6, Sa-ngiamsuntorn et al., (2021); details: Sa-ngiamsuntorn et al., (2021); cited from earlier work
[2] = physchem; type: physicochemical
Procedure: To find the solubility of AGP in the optimized SMEDDS (highest amount of AGP that can be loaded into the optimized SMEDDS), an excess amount of A. paniculata extract was added to the 1.5 mL of the optimized SMEDDS and shaken at 37 °C 120 rpm for 72 h in an incubator shaker. Then, the AGPE-loaded optimized SMEDDS was centrifuged at 14,000 rpm for 30 min to separate the extract powder from the AGP-extracted SMEDDS. The supernatant was collected and diluted with methanol before the analysis of AGP content using HPLC. HPLC analysis with UV detection was used to quantify the content of AGP. An Agilent® 1200 (Santa Clara, CA, USA) with an Agilent® ZORBAX Eclipse XDB-C18 (4.6 × 150 mm, 5 µm) column was used. The mobile phase was methanol:water (65:35), and the injection volume was 20 µL. The flow rate was set at 0.8 mL/min, and the detection wavelength was 228 nm. The standard curve of AGP was constructed, ranging from 5 to 200 µg/mL.

[3] = design: method as in ref 53, Kim et al., (2019); details: Kim et al., (2019), cited from earlier work

Row | SMILES | anti-SARS-CoV-2 activity, IC50 [1] | solubility [2] [mg/mL] | solubility at 72 h ([2]; 37 °C, thermodynamic from solid) [mg/mL] | Time within which dissolution was completed ([3]; SMEDDS formulation) [min] | Drug powder dissolved ([3]; drug powder, after 60 min) [%]
1 | C=C1CC[C@@H]2[C@](C)(CO)[C@H](O)CC[C@@]2(C)[C@@H]1C/C=C1/C(=O)OC[C@H]1O [AGP, andrographolide] | equivalent to the antiviral agent remdesivir | ~42 (≈ 120 mM) | ~38 (≈ 108 mM) |  | 
2 | CN(Cc1cnc2nc(N)nc(N)c2n1)c1ccc(C(=O)N[C@@H](CCC(=O)O)C(=O)O)cc1 [methotrexate] |  |  |  | ≤ 20 | 53
